Reference: patent publication US20190175577A1, “METHOD FOR TREATING AMYOTROPHIC LATERAL SCLEROSIS” (UNIVERSITY OF MIAMI, priority 2017, published 2019)

Key:
[1] = tested on: ALS caused by SOD1 mutations; experiment: randomized, double-blind placebo controlled phase II trial: efficacy (survival, ALSFRS-R, CAFS); assay type: in vivo, human; conditions: for participants alive (and without PAV or tracheostomy): at 12 months
Protocol: (§1) Provided herein are the details of a completed, randomized, double-blind placebo controlled phase II trial. The trial was conducted at two sites and three academic medical centers in the United States. An independent medical monitor completed regular review of laboratory reports and adverse events (AEs), as well as real-time review of serious adverse events (SAEs). Eligibility criteria (FIG. 1) aimed to enroll, from across the U.S. and Canada, a population relatively early in the course of ALS caused by SOD1 mutations associated with rapidly progressive disease.
(§2) Randomization (1:1 to Arimoclomol or matching placebo) was stratified by Riluzole use and in block size of two within each stratum, and implemented using a central web-based electronic data capture (EDC) system managed by the Neurological Clinical Research Institute Data Management Center at MGH. The randomization schedule, generated by a study statistician, was provided to each research pharmacy. At randomization, the EDC assigned a subject identification number, which the site-coordinator submitted to the research pharmacy for drug dispensing. Encapsulated placebo was matched in color and appearance to active drug. Except for the research pharmacists, pharmacy monitors, and study statisticians, all other personnel and study participants were blinded to treatment assignments.
The first participants were randomized and administered 100 mg of Arimoclomol three times daily. After enrollment of the first 16 participants (of whom 8 were on Arimoclomol, including 1 subject subsequently excluded per protocol), the dosage was increased to 200 mg administered three times daily for all active participants (which for the Arimoclomol group included three subjects initially started at 100 mg administered three times daily), and all newly enrolled participants received 200 mg three times a day. All data were analyzed following the intent-to-treat principle.
Assessments were performed in person only at Baseline and Month-2, with remote assessments planned for all other visits. Neurological examination, motor unit number estimation (MUNE), and slow vital capacity (SVC) could only be performed in person. Other assessments, conducted at all visits (in person and remotely), included: vital signs; blood and urine for safety labs; ALSFRS-R (revised ALS Functional Rating Scale), which has been validated for telephone administration; and the forced expiratory volume in 6-seconds (FEV6). Miano et al., Amyotrophic Lateral Sclerosis And Other Motor Neuron Disorders: Official Publication Of The World Federation Of Neurology, Research Group On Motor Neuron Diseases 2004; 5:235-239; Vandevoorde et al., Chest 2005; 127:1560-1564. In addition, AEs, concomitant medications, study drug dose management, use of ventilatory support, and key study events were recorded at all visits.
Operationalization of remote assessments posed logistical challenges that required the introduction of two innovative features: (1) the collection of vital signs and blood/urine for safety labs in participants' homes, this was accomplished using the services of a mobile medical provider; and (2) the use of FEV6 as the principal measure of respiratory function. The key advantage of FEV6 over SVC is that FEV6 may be self-administered by the participant using a low-cost portable device (e.g., Piko-6, nSpireHealth, Inc.). […] Use of the FEV6 allowed for remote assessment of respiratory function, which otherwise would not have been available for collection in this trial. Reproducibility and normative data for FEV6 are established. Hankinson et al., Chest 2003; 124:1805-1811.
For efficacy, the principal outcome measure was PAV- and tracheostomy-free survival time, calculated from baseline to PAV (defined as first of seven consecutive days when PAV was used >22 hours/day) or tracheostomy, date of death (if no PAV or tracheostomy), or date of last available follow-up/study contact (if still PAV- and tracheostomy-free by then). […]

[2] = tested on: ALS caused by SOD1 mutations; design: species or system human; conditions: in vivo
Protocol: as §1
as §2, with “Encapsulated placebo was matched in color and appearance to active drug. Except for the research pharmacists, pharmacy monitors, and study statisticians, all other personnel and study participants were blinded to treatment assignments.” left out
The first participants were randomized and administered 100 mg of Arimoclomol three times daily. […] All data were analyzed following the intent-to-treat principle.
Assessments were performed in person only at Baseline and Month-2, with remote assessments planned for all other visits. […] In addition, AEs, concomitant medications, study drug dose management, use of ventilatory support, and key study events were recorded at all visits.
The primary endpoint of safety and tolerability was based on the frequency of AEs, abnormal vital signs, and abnormal laboratory studies above or below pre-defined alert levels. […] In summarizing AEs: (a) if a participant experienced multiple occurrences of the same event, only the occurrence with the worst severity (or highest degree of relatedness to study drug) was counted; and (b) CTCAE events were further classified into subgroups (“AE type”), e.g., pneumonia and bronchitis were both classified as upper/lower respiratory infection.

[O-][n+]1cccc(/C(Cl)=N/OC[C@H](O)CN2CCCCC2)c1 [Arimoclomol]
CAFS potential treatment benefit vs placebo ([1]; 95% CI: −2.50 to 11.64): 4.57 points | ALSFRS-R rate of decline, average (±SE) ([1]; A4V subgroup): 2.6±0.5 points/month | treatment difference in ALSFRS-R rate of decline vs placebo ([1]; A4V subgroup, 95% CI: −0.28 to 2.24, p=0.12): 0.98 points/month | win ratio, participant-to-participant comparison between the two groups ([1]; CAFS): 1.6924 | unadjusted hazard ratio (HR), PAV- and tracheostomy-free survival ([1]; Cox proportional hazards model, Arimoclomol compared to control, 95% CI: 0.29-1.48, p=0.33): 0.67 | hazard ratio (HR) adjusted for baseline ALSFRS-R and Riluzole ([1]; Cox proportional hazards model, 95% CI: 0.32-1.80, p=0.55): 0.77 | treatment difference in ALSFRS-R rate of decline, Vonesh model ([1]; Vonesh shared parameter model, 95% CI: −0.33 to 1.86, p=0.16): 0.77±0.54 points/month | treatment difference in ALSFRS-R rate of decline vs placebo ([1]; all participants, 95% CI: −0.63 to 1.63, p=0.37): 0.5 points/month | ALSFRS-R rate of decline, average (±SE) ([1]; all participants, mixed model): 2.5±0.4 points/month | participants alive (and without PAV or tracheostomy) ([1]; all participants, Kaplan-Meier): 34% | participants alive (and without PAV or tracheostomy) ([1]; subgroup of A4V participants): 29% | direct effect of treatment on survival, Vonesh model ([1]; p=0.62): not significant | CAFS rank score, average (±SE) ([1]; rank scores range from 1 (worst) to 36 (best)): 20.9±2.5 | ALSFRS-R difference over a one-year period ([1]; translated from treatment difference of 0.5-1.0 points/month, not statistically significant): 6-12 points | discontinuation because of adverse event [2]: A single participant stopped Arimoclomol because of a skin rash | relatedness of SAEs to study drug [2]: none of which were considered related to study drug | serious adverse events (SAEs) reported [2]: 7
